Measurements reported in patent publication EP0206783A2, “Expression and secretion of polypeptides from saccharomyces cerevisiae” (The Salk Institute Biotechnology Industrial Associates, Inc., priority 1985, dated 1986).
Ends that are not written are not given here.

System: pituitary cells
Test: rat pituitary cell bioassay for GRF (release of growth hormone)
Format: cell-based
Settings: plated rat pituitary cells, dexamethasone added, GH measured by anti-rat GH RIA; yeast peptide purified, from pTRP213-transformed GG100-14D
Protocol: A rat pituitary cell bioassay for GRF was conducted using the purified GRF analog secreted from pTRP213-transformed S. cerevisiae cells (GG100-14D). The ability of the GRF analog to cause the release of growth hormone from the pituitary cells was measured and compared to the ability of a synthetic hGRF(1-40)-OH standard to do the same. Such an analysis allowed the biological activity of yeast-produced GRF analog to be evaluated.
Typically, pituitaries of 20 rats were removed and treated with collagenase to obtain a suspension of approximately 8×10^7 cells which were then plated in the appropriate medium. The cells, attached to tissue culture dishes, were treated with yeast-derived peptide or synthetic standard within three to five days after plating. Dexamethasone was added to enhance the effect of GRF on GH secretion; cells treated in this manner secrete 8-9 times more GH than do control cells treated with GRF but not dexamethasore. Growth hormone secretion levels were measured using an anti-rat GH RIA which had been standardized with respect to the synthetic standard.
The percent of maximum rat growth hormone secretion upon treatment of the plated pituitary cells with purified GRF analog secreted from yeast and treatment with synthetic hGRF(1-40)-OH was determined. The ED50 value for secretion with both treatments was about. 32 pM.

hGRF(1-40)-OH (YADAIFTNSYRKVLGQLSARKLLQDIMSRQQGESNQERGA-OH; UniProt P01286 32-71, looked up, fragment) [synthetic hGRF(1-40)-OH, synthetic polypeptide standard, hGRF(1-40)-OH (with Met at position 27)]
ED50 value for secretion (percent of maximum rat growth hormone secretion): ~0.032 nM
